Where two headings read alike, the source gives them in different places.
Key:
[1] = tested on: Yarrowia lipolytica cells
Text: In this example Yarrowia lipolytica cells treated with the DNA Ligase IV inhibitor, Scr7, were transformed with targeting plasmids in the presence and absence of editing templates. Homology directed repair (HDR) occurs between an editing template and the target DNA when there are two regions of homology flanking a region of interest (FIG. 3). A DNA double-stranded break at a target site within the region of interest can initiate HDR replacing the region of interest (FIG. 3, white box) with a modified region of interest carried on the editing template. In this example the modified region of interest lacks the entire open-reading frame of the CAN1 gene.
Cells were phenotypically scored for Canavanine resistance to determine overall targeting efficiency (NHEJ+HDR). Colony PCR of the CAN1 locus (SEQ ID NO: 35) was performed to differentiate repair of the Cas9/gRNA generated double-strand break by HDR or NHEJ.
Three different treatment conditions were tested: Untreated, Scr7-A, and Scr7-B (A schematic of the three treatments is shown in FIG. 4). For all three conditions a uracil auxotrophic strain of Yarrowia lipolytica ATCC20362 was used For the untreated condition the strain was grown for 24 hours on YPD medium plates (Teknova) at 30° C. (also referred to as a pretreatment). 1 loop of cells were resuspended in transformation buffer (35% polyethylene glycol average molecular weight of 3550, 100 mM lithium acetate, 100 mM dithiothreitol, 10 mM Tris, 1 mM EDTA pH 6.0). 100 μl of cell suspension was mixed with 100 ng of either pRF291 (SEQ ID NO: 18) (Cas9 expression, no gRNA) or pRF303 (SEQ ID NO: 24) (Cas9 expression, Can1-1 gRNA expression) with either no editing template or 1 μg linear editing template (SEQ ID NO: 34). Transformation mixtures were incubated at 39° C. for 1 hour at 800 RPM. Transformation mixtures were plated on complete minimal medium plates lacking uracil (Teknova) to select for cells transformed with plasmid DNA. Plates were incubated at 30° C. for 48 hours.
For treatment Scr7-A the strain was grown for 24 hours on YPD medium plates (Teknova) at 30° C. (also referred to as a pretreatment). 1 loop of cells were resuspended in modified transformation buffer (35% polyethylene glycol average molecular weight of 3550, 100 mM lithium acetate, 100 mM dithiothreitol, 10 mM Tris, 1 mM EDTA pH 6.0, 5 μM Scr7). 100 μl of cell suspension was mixed with 100 ng of either pRF291 (SEQ ID NO:18) (Cas9 expression, no gRNA) or pRF303 (SEQ ID NO: 24) (Cas9 expression, Can1-1 gRNA expression) with either no editing template or 1 μg linear editing template (SEQ ID NO: 31). Transformation mixtures were incubated at 39° C. for 1 hour at 800 RPM. Transformation mixtures were plated on complete minimal medium plates lacking uracil (Teknova) to select for cells transformed with plasmid DNA. Plates were incubated at 30° C. for 48 hours.
For treatment Scr7-B the strain was grown for 24 hours on YPD medium plates containing 5 μM Scr7 at 30° C. (also referred to as a pretreatment). 1 loop of cells were resuspended in modified transformation buffer (35% polyethylene glycol average molecular weight of 3550, 100 mM lithium acetate, 100 mM dithiothreitol, 10 mM Tris, 1 mM EDTA pH 6.0, 5 μM Scr7). 100 μl of cell suspension was mixed with 100 ng of either pRF291 (SEQ ID NO:18) (Cas9 expression, no gRNA) or pRF303 (SEQ ID NO: 24) (Cas9 expression, Can1-1 gRNA expression) with either no editing template or 1 μg linear editing template (SEQ ID NO: 31). Transformation mixtures were incubated at 39° C. for 1 hour at 800 RPM. Transformation mixtures were plated on complete minimal medium containing 5 μM Scr-7 plates lacking uracil. Plates were incubated at 30° C. for 48 hours.
For each condition, 24 colonies from each transformation were streak purified on complete minimal plates lacking uracil (Teknova) for single colonies.

[2] = tested on: Yarrowia lipolytica cells; experiment: Colony PCR of the CAN1 locus to determine frequency of HDR at Cas9/gRNA double-strand breaks; format: cell-based; settings: for Fold HDR over untreated (±SEM) / HDR Frequency (±SEM): pRF303, Can1-1 target site, with editing template
Experimental: To determine the frequency of HDR at the targeted double-strand breaks generated by Cas9/gRNA at the Can1-1 target site Yarrowia colony PCR of the CAN1 locus (SEQ ID NO: 40) (primers used, […], forward (SEQ ID NO: 38) and […], reverse (SEQ ID NO: 39)) was performed using standard techniques. If the CAN1 locus was unmodified or contained a small indel generated by NHEJ the colony PCR result would give a band similar in size to the WT CAN1 locus at an apparent size of 2125 bp (SEQ ID NO: 40). If the Cas9/gRNA generated double-strand break had been repaired using the editing templates the PCR would generate a smaller CAN1 locus product 392 bp indicating the deletion of the entire open-reading frame (SEQ ID NO: 41). Colony PCR was performed on all canavanine resistant colonies from cells transformed with pRF303 in the presence of editing template and the fraction of cells where the Cas9/gRNA generated double-strand break was repaired via HDR with the editing template and various Scr-7 treatment schemes was determined (Table 1).

[3] = tested on: Yarrowia lipolytica cells; experiment: Relative copy number analysis (qPCR) of CAN1 fragment for off-target insertion of editing template by NHEJ; format: cell-based; settings: for Fraction of cells with single copy of CAN1 / Fraction of cells with ≥2 copies of CAN1: HDR-positive colonies
Experimental: An additional complication of repair of Cas9/gRNA generated double-stranded breaks using editing template is the possibility that the editing template can be incorporated by the NHEJ pathway at other regions of DNA damage. In order to determine the frequency at which this occurs in the cells treated with editing templates under the three different Scr-7 treatments, relative copy number analysis was performed looking for a 62 bp fragment of the CAN1 locus present in both the chromosome and the editing template (SEQ ID NO: 42). Relative copy number analysis was performed on colonies from cells treated with pRF303 (SEQ ID NO: 24) and linear editing template (SEQ ID NO: 34) under all three treatment conditions. If the editing template is only incorporated during the HDR of the Cas9/gRNA double strand break at the CAN1 locus (SEQ ID NO: 35) the cell will only carry a single copy of the copy number analysis fragment (SEQ ID NO: 42). However, if the cell incorporates additional copies of the editing template elsewhere in the genome due to the activity of the NHEJ pathway additional copies of the fragment will be present and the cell will return a higher relative copy number. Briefly, genomic DNA was isolated using standard techniques from colonies that scored positive for HDR of the Can1-1 Cas9/gRNA targeted double strand break. Genomic DNA was normalized to 5 ng/μl. 1 μl of the normalized genomic DNA from each colony was added to three replicate qPCR reactions for both the CAN1 locus (SEQ ID NO: 42), (primers used, AGCGCCAAACCCAAAGC, forward (SEQ ID NO: 43), […], reverse (SEQ ID NO: 44), and 6FAM-[…]-TAMRA, probe (SEQ ID NO: 45)) or as a control the TEF1 locus (SEQ ID NO: 56) (primers used, […], forward (SEQ ID NO: 47), […], reverse (SEQ ID NO: 48) and 6FAM-[…]-TAMRA, probe (SEQ ID NO: 49)). Reactions were run in TaqMAN universal PCR master mix (ABI life technologies) on a life technologies Quant Studio 7 instrument using the following cycling conditions 95° C. for 10 minutes followed by 40 cycles of 95° C. for 15 seconds, 60° C. for 1 minute. 6FAM fluorescence from the probes was monitored through the 40 cycles of the PCR and Ct values were collected. Relative gene copy number was determined by the ΔΔCt method (User Bulletin #2 ABI PRISM 7700 Sequence Detection System (Updated 2001)). Briefly, TEF1 Ct values were used to normalize the data for differences in cell copy number between genomic DNA samples. Genomic DNA from a wildtype strain was used as a reference for the relative quantification for the CAN1 copy number fragment (SEQ ID NO: 42). Software on the Quant studio 7 calculated relative gene copy number and corresponding error for each sample relative to the wildtype strain. The colonies were separated into two bins, those with a single relative copy of the CAN1 analysis fragment (SEQ ID NO: 42) and those with 2 or more relative copies (SEQ ID NO: 42). […] The second bin represents cells where the editing template was used to repair the Cas9/gRNA generated double-strand break at the Can1-1 target site (SEQ ID NO: 22) and was integrated at least once somewhere else in the genome via a NHEJ mechanism.

[4] = Scr7 treatment A, pRF303 and linear editing template
[5] = Scr7 treatment B, pRF303 and linear editing template

## O=c1[nH]c(=S)[nH]c(N=Cc2ccccc2)c1N=Cc1ccccc1 [Scr7]
[1]; Scr7 treatment A (5 μM Scr7 in transformation buffer), pRF291 (Cas9, no gRNA), no editing template
  Canavanine resistance frequency (±Std. Dev): 0 ± 0
[1]; Scr7 treatment A, pRF291 (Cas9, no gRNA), with editing template
  Canavanine resistance frequency (±Std. Dev): 0 ± 0
[1]; Scr7 treatment A, pRF303 (Can1-1 gRNA), no editing template
  Canavanine resistance frequency (±Std. Dev): 62.2 ± 6.7
[1]; Scr7 treatment A, pRF303 (Can1-1 gRNA), with editing template
  Canavanine resistance frequency (±Std. Dev): 64.2 ± 6.4
[1]; Scr7 treatment B (5 μM Scr7 in 24 h pretreatment, transformation buffer and selection plates), pRF291 (Cas9, no gRNA), no editing template
  Canavanine resistance frequency (±Std. Dev): 0 ± 0
[1]; Scr7 treatment B, pRF291 (Cas9, no gRNA), with editing template
  Canavanine resistance frequency (±Std. Dev): 0 ± 0
[1]; Scr7 treatment B, pRF303 (Can1-1 gRNA), no editing template
  Canavanine resistance frequency (±Std. Dev): 68.7 ± 6.3
[1]; Scr7 treatment B, pRF303 (Can1-1 gRNA), with editing template
  Canavanine resistance frequency (±Std. Dev): 64.6 ± 20.3
[1]; pRF291 (Cas9, no functional gRNA), regardless of Scr-7 treatment scheme
  Canavanine resistant cells: did not give rise to Canavanine resistance cells
[2]; Scr7 treatment A
  Fold HDR over untreated (±SEM): 0.9 ± 0.1 fold
  HDR Frequency (±SEM): 9.7 ± 1.4
[2]; Scr7 treatment B
  Fold HDR over untreated (±SEM): 1.5 ± 0.3 fold
  HDR Frequency (±SEM): 16.7 ± 4.8
[2]; Scr7 treatment B, listed as Scr-7
  Fold HDR over untreated (±SEM): 1.5 fold
[2]; extended Scr-7 treatment B, linear editing template
  Fraction of breaks repaired via HDR, as % of the frequency of untreated or short Scr-7 treatment A: 150%
[3]; [4]
  Fraction of cells with single copy of CAN1: 0.38
  Fraction of cells with ≥2 copies of CAN1: 0.63
[3]; [5]
  Fraction of cells with single copy of CAN1: 1
  Fraction of cells with ≥2 copies of CAN1: 0
[3]; Scr-7 treatment A, pRF303 and linear editing template
  Colonies with a single copy of the CAN1 editing template: approximately 40%
[3]; Scr-7 treatment B, pRF303 and editing template
  Colonies with only a single copy of the CAN1 locus: 100%

— patent US20180362961A1, “METHODS AND COMPOSITIONS FOR ENHANCED NUCLEASE-MEDIATED GENOME MODIFICATION AND REDUCED OFF-TARGET SITE EFFECTS” (Danisco US Inc., priority 2015, published 2018)
